This is an account of results in US10456405B2, “Nitric oxide-releasing prodrug molecule of substituted quinazolines” (ZHEJIANG HUAHAI PHARMACEUTICAL CO., LTD, priority 2015, dated 2019).

The nature of data set [1]: Plasma stability in vitro, mouse plasma. To be noted: CD-1 mice plasma, 2 μM, 37° C., in % (unit assumed).
Experimental: (§1) Experimental method: The tested compounds (2 μM) were added into mouse or human plasma, and incubated at 37° C. Samples were taken at 0, 10, 30, 60 and 120 min respectively. The reaction was stopped by adding a stop agent. The mixture was sufficient shaken, and centrifuged at 4000 rpm for 10 min at 4° C. The supernatant was taken. The concentrations of the tested compounds and their metabolite (H130) in the supernatant were measured by LC-MS/MS.
Data set [2] can be described thus: Plasma stability in vitro, human plasma. To be noted: for Content of Tested Substance (n = 2): human plasma, 2 μM, 37° C., in % (unit assumed); for stability in human plasma: within 2 h.
Experimental: as §1
Data set [3] is described as follows: Release of nitric oxide in vitro (Griess reagent, nitrite). To be noted: for Amount of Released No: 10^−4 mol/L tested substance, phosphate buffer pH 7.4, cysteine 5 mmol/L, 37° C., 1 h, as nitrite. As to the method:
Experiment 1. Experimental Study on the Tested Compounds for Releasing Nitric Oxide in vitro
Experimental Procedure: • (1) Preparation of Griess Reagent: 4 g of aminobenzenesulfonamide, 0.2 g of N-naphthyl ethylene diamine hydrochloride, and 10 mL of 85% phosphoric acid solution were taken to form a solution, which is diluted to 100 mL with distilled water. • (2) Plotting of the standard curve: a serie of standard solution of 0.01, 0.03, 0.05, 0.07, 0.09, 0.2, 0.4 μg/mL of nitrite nitrogen was prepared, 10 mL of each was taken to sufficiently mix with 2.5 mL of Griess reagent, standing at room temperature for 10 min, and its absorbance value at the wavelength of 540 nm was measured. The standard curve was plotted based on the resulting data. • (3) Measuring the amount of the released NO of the tested drug: all of the tested substances were dissolved in dimethylsulfoxide (1 mL) firstly. Then phosphate buffer (pH 7.4) was slowly added dropwise, and shaken. The drug solution was diluted to 50 mL, allowing the buffer solution to contain excess cysteine (5 mmol/L), and the final concentration of the tested substances being 10^−4 mol/L; the solution was incubated at 37° C. 2 mL of the reaction solution was taken to mix with 500 μl of Griess reagent at 1 h respectively, standing at room temperature for 10 min. The absorbance value of the mixture at 540 nm was measured. Isosorbide mononitrate was used as a positive control, and H130 was used as a negative control. The amount of the released NO was represented by the amount of its oxidation product, nitrite (NO2^−).

A short description of data set [4]: Release of HNO (headspace gas chromatography of nitrous oxide). To be noted: PBS pH 7.4, 37° C., argon, 90 min. As to the method:
Experiment 2. Experimental study on the tested compounds for releasing HNO HNO rapidly dimerizes and dehydrates to produce nitrous oxide in aqueous solution. In the experiment of detecting HNO, gas chromatographic headspace analysis is generally used to determine the amount of the released nitrous oxide, thereby indirectly detect the level of releasing HNO of the compound.
Experimental procedure: Each of the tested compounds was prepared to 20 mg/mL of mother liquor with DMF. Prior to the start of the experiment, 50 μL of drug mother liquor was placed into a 20 mL headspace sample vial. The tested compound was diluted by adding 5 mL of PBS buffer with pH 7.4. The temperature of the resulting sample was kept at 37° C. under argon gas for 90 min. Then the top gas was extracted for gas chromatographic analysis of nitrous oxide by using Angeli's Salt as a positive compound in the experiment.

`COc1cc(OC)c2c(=O)[nH]c(-c3cc(C)c(OCCOC(=O)c4cccc(CO[N+](=O)[O-])c4)c(C)c3)nc2c1` [Compound H102, 2-[4-(5,7-dimethoxy-4-oxo-3,4-dihydro-quinazolin-2-yl)-2,6-dimethyl-phenoxy]-ethyl 3-nitroxymethyl-benzoate]: the “Content of Tested Substance (n = 2)” value in data set [1] (0 min) amounted to 100.0; in data set [1] (10 min) it was 10.8; in data set [1] (30 min), 1.3; in data set [1] (60 min), 3.1; in data set [1] (120 min), 1.8; in data set [2] (0 min), 100.0. For the same compound, the “Content of Tested Substance (n = 2)” value in data set [2] (10 min) is on record as 101.5; in data set [2] (30 min) it was 98.4; in data set [2] (60 min) it was 95.0; in data set [2] (120 min) it was 84.5. In data set [2], the “stability in human plasma” value was “good stability”. For the same compound, in data set [3], the “time after which NO is produced” value is ≥ 2 h. Also, the “Amount of Released No” value in data set [3] was -0.55 µM. Also, in data set [3] (within 1 h), the “NO release detected within 1 h” value is reported as “does not produce NO within 1 h”.
`[Na+].[Na+].[O-][N+]([O-])=NO` [Angeli's Salt, reference compound]: in data set [4], the “Molar Quantities of N2O/Sample” value is 62.4%.
As for `COc1cc(OC)c2c(=O)[nH]c(-c3cc(C)c(OCCOC(=O)C(O)CC(=O)OCc4c(-c5ccccc5)no[n+]4[O-])c(C)c3)nc2c1` (stereo not shown) [Compound H113, 2-[4-(5,7-dimethoxy-4-oxo-3,4-dihydro-quinazolin-2-yl)-2,6-dimethyl-phenoxy]-ethyl (2-oxo-4-phenyl-furazan-3-yl)-methyl 2-hydroxy succinate], in data set [3], the “Amount of Released No” value came to 45.63 µM.
The same measure, in the same setting: to `COc1cc(OC)c2c(=O)[nH]c(-c3cc(C)c(OCCOC(=O)CCC(=O)N4CCN(CCO[N+](=O)[O-])CC4)c(C)c3)nc2c1` [Compound H117, 2-[4-(5,7-dimethoxy-4-oxo-3,4-dihydro-quinazolin-2-yl)-2,6-dimethyl-phenoxy]-ethyl 4-[4-(2-(nitroxy)ethyl)-piperazin-1-ly]-4-oxo-butyrate] belongs 1.36 µM.
On to `COc1cc(OC)c2c(=O)[nH]c(-c3cc(C)c(OCCOC(=O)ONS(=O)(=O)c4ccc(C)s4)c(C)c3)nc2c1` [Compound H103, N-((2-(4-(5,7-dimethoxy-4-oxo-3,4-dihydroquinazolin-2-yl)-2,6-dimethylphenoxy)ethoxy)carbonyloxy)-5-methylthiophene-2-sulfonamide], for which the “Content of Tested Substance (n = 2)” value in data set [1] (0 min) was determined as 100.0; in data set [1] (10 min), 0.0; in data set [1] (30 min) it was 0.0; in data set [1] (60 min), 0.0; in data set [1] (120 min) it was 0.0; in data set [2] (0 min), 100.0. Further, the “Content of Tested Substance (n = 2)” value in data set [2] (10 min) came to 97.3; in data set [2] (30 min), 89.6; in data set [2] (60 min), 83.3; in data set [2] (120 min) it was 86.9. In addition, the “Molar Quantities of N2O/Sample” value in data set [4] was 19.7%. In addition, in data set [2], the “stability in human plasma” value is reported as “good stability”.
With `COc1cc(OC)c2c(=O)[nH]c(-c3cc(C)c(OCCOC(=O)NC4COC5C(O[N+](=O)[O-])COC45)c(C)c3)nc2c1` (stereo not shown) [Compound H120, 2-[4-(5,7-dimethoxy-4-oxo-3,4-dihydro-quinazolin-2-yl)-2,6-dimethyl-phenoxy]-ethyl (6-nitroxy-hexahydrofuro[3,2-b]furan-3-yl)-carbamate], the “Amount of Released No” value in data set [3] was 1.32 µM.
Take `COc1cc(OC)c2c(=O)[nH]c(-c3cc(C)c(OCCOC(=O)CCC(=O)ONS(=O)(=O)c4ccc(Cl)s4)c(C)c3)nc2c1` [Compound H121, 2-[4-(5,7-dimethoxy-4-oxo-3,4-dihydro-quinazolin-2-yl)-2,6-dimethyl-phenoxy]-ethyl 4-(((5-chlorothiophene)-2-sulfonylamino)oxy)-4-oxo-butyrate]: the “Molar Quantities of N2O/Sample” value in data set [4] is recorded as 24.6%.
“3-(nitroxy)-2,2-di(nitroxymethyl) propyl 4-(2-[4-(5,7-dimethoxy-4-oxo-3,4-dihydro-quinazolin-2-yl)-2,6-dimethyl-phenoxy] butyl)-4-oxo-2-acetamino-butyrate [Compound H124]”: the “Amount of Released No” value in data set [3] was determined as 2.89 µM.
As for `COc1cc(OC)c2c(=O)[nH]c(-c3cc(C)c(OCCOC(=O)/C=C/C(=O)ONS(=O)(=O)c4ccco4)c(C)c3)nc2c1` [Compound H115, 2-[4-(5,7-dimethoxy-4-oxo-3,4-dihydro-quinazolin-2-yl)-2,6-dimethyl-phenoxy]-ethyl (E)-4-((furan-2-sulfonylamino)oxy)-4-oxo-2-crotonate], the “Molar Quantities of N2O/Sample” value in data set [4] is reported as 17.8%.
The same measure, in the same setting: to “2-(N-((2-(4-(5,7-dimethoxy-4-oxo-3,4-dihydro-quinazolin-2-yl)-2,6-dimethyl-phenoxy]-ethoxy) carbonyl)oxy)sulfamoyl)-1-methyl-1H-pyridine 1-2-onium salt [Compound H122]” belongs 18.3%.
